Reference: patent US20240189312A1, “COMPOSITION FOR TREATING ACUTE BRAIN INJURY OR NEURODEGENERATIVE DISEASE, METHOD OF MAKING, AND USE THEREOF” (priority 2022, published 2024)
Entries after “also recorded” stand apart in the source; their conditions may differ.

Key:
CYP46A = CYP46A (Homo sapiens, UniProt Q9Y6A2); settings: cited from earlier work
[1] = test system: primary cultured mouse cortical neurons; test: NMDA toxicity (neuronal loss, LDH release); assay type: cell-based; settings: MK-801 10 μM
Procedure: (§1) Cultures of mouse primary cortical neurons were prepared as described previously and modified [Leng T D, Lin J, Sun H W, Zeng Z, O'Bryant Z, Inoue K, et al. Local anesthetic lidocaine inhibits TRPM7 current and TRPM7-mediated zinc toxicity. CNS Neurosci Ther 2015; 21: 32-9.]. The use of mice for neuronal cultures was approved by the Institutional Animal Care and Use Committee of Morehouse School of Medicine. Briefly, the brains of fetuses (embryonic day 16) were removed quickly from anesthetized pregnant Swiss mice and placed in cold Ca2+/Mg2+-free PBS. Cerebral cortices were dissected and incubated with 0.05% trypsin-EDTA for 10 min at 37° C., followed by trituration. Cells were plated in 35-mm poly-L-ornithine-coated culture dishes at a density of 1×10^6 cells. […]
(§2) LDH release was measured using a cytotoxicity detection kit (Cat. No. 11644793001, Roche Diagnostics) according to the manufacturer's instruction, as described in previous studies [Leng T D, Lin J, Sun H W, Zeng Z, O'Bryant Z, Inoue K, et al. Local anesthetic lidocaine inhibits TRPM7 current and TRPM7-mediated zinc toxicity. […] The absorbance at 492 and 620 nm was measured by spectrometer (SpectraMax Plus, Molecular devices, Sunnyvale, CA, USA). LDH release was determined based on subtracting absorbance at 620 nm from that at 492 nm.

[2] = test system: primary cultured mouse cortical neurons; test: OGD toxicity (neuronal loss, LDH release); assay type: cell-based; settings: MK-801
Procedure: as §1, §2

NMDA receptor = settings: cited from earlier work
select neurons = settings: cited from earlier work
CYP46A1 = CYP46A1 (Homo sapiens, UniProt Q9Y6A2); settings: cited from earlier work
[3] = test system: MCAO induced ischemic brain injury; test: MCAO ischemic stroke model, TTC staining; assay type: in vivo, mice; settings: ICV 40 μM stock, 1 μl, 3 h before 45 min MCAO, TTC at 24 h
5XFAD mice = test: Alzheimer's disease model in 5XFAD mice; settings: 5XFAD test mice
Procedure: 5XFAD mice are obtained. 5XFAD transgenic mice express 5 human familial Alzheimer's disease (FAD) mutants in amyloid-beta precursor protein (APP) and presenilin 1 (PS1) driven by the Thy1 promoter. […] Experimental 5XFAD mice are obtained by crossing heterozygous transgenic mice with C57BL/6 wild-type breeders. Wild-type littermates are used as controls and randomly allotted to each experiment. Male mice are used in all experiments. All mice are housed in a standard animal facility with a 12 h alternating light/dark cycle.
Control mice are administered a placebo.
A Barns maze protocol is performed. Briefly, the apparatus is a revolvable white acrylic disc elevated from the floor with 18 holes equally spaced along the perimeter of the circle and positioned in a brightly light. One hole is selected as the escape target hole, and a dark escape chamber is placed under the target hole consistent for each trial. Mice are allowed to freely explore on the platform for 5 min without the escape chamber, and habituated to the escape chamber for 2 min on two consecutive days. In the training phase, a session of 2 trials is performed by each mouse. Each mouse is covered under a nontransparent cylinder placed in the center of the maze. After 15 s, the cylinder is gently removed to allow mouse to explore the maze for 180 s until the target hole is found. […] The maze and the escape chamber are wiped with 70% ethanol. The mouse is identified to find the target chamber when the back of the mice crossed the target hole. The mouse is considered to have entered the target chamber if the entire body is on the platform. The primary latency that mice took to find the target hole is documented for each trial. Two trials per day are performed for eight days. For the probe test, memory retention is assessed 5 days after the last training trial. The duration of the probe trial is 90 s. […] The position of the target hole is the same as that in the training period. The primary latency to find the target hole and time in the target quadrant is analyzed by Anymaze software.
A T maze protocol is performed. Briefly, before performing the task, the diet of mice is restricted daily to hold 80% to 85% of their primary body weight throughout the task. The T maze apparatus is placed in a quiet room, and light intensity is held at a constant level. During the training, a forced choice is followed by a free choice for each trial. In the forced-choice phase, a food pellet is placed in either the left or right choice arm. The door to the choice arm with food pellet is opened, while the other choice arm is closed. The mouse is allowed to consume the pellet. When the pellet is consumed, the mouse is returned to the start arm. After the forced choice is completed, the free choice is initialized. During the free choice, all doors are open; the mouse is allowed to freely enter one of two arms. If the mouse entered the same arm as in the forced-choice phase, the trial is considered to result in an “error,” and the pellet is removed. If the mouse entered the opposite arm as in the forced-choice phase, the trial is considered to have a “correct” result, and the mouse is rewarded with a food pellet. Following each session, the apparatus is cleaned with 70% ethanol. Six consecutive trials are performed in a session per day. The percentage of correct responses is calculated in each session.
Motor activity and anxiety is studied in the open field test. […] The mouse activity is monitored under an infrared camera for 5 min.

Chain of CYP46A (Q9Y6A2 whole entry): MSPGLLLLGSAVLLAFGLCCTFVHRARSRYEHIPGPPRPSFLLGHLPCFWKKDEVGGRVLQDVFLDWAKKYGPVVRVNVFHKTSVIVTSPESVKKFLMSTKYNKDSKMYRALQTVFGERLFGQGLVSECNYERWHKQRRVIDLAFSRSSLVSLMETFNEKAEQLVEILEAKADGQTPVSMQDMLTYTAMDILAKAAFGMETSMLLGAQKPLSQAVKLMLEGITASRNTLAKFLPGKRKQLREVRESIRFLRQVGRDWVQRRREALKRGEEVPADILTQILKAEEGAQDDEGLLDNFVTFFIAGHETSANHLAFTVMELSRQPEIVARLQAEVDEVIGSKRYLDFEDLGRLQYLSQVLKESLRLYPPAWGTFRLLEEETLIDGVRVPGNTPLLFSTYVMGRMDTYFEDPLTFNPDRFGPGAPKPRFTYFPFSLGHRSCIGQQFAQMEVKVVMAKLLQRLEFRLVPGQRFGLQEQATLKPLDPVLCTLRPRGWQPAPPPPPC
Chain of CYP46A1 (Q9Y6A2 whole entry, species assumed): as the sequence (Q9Y6A2 whole entry) above

Question: With `N[C@@H]1C[C@H]1c1ccccc1` (racemic) [tranylcypromine] as the molecule, how does the “affinity for CYP46A” value (CYP46A) read?
Answer: The value was “nanomolar affinity”.

Question: For `C[C@]12N[C@H](Cc3ccccc31)c1ccccc12` [MK-801, dizocilpine], which “inhibition of 24S-HC increased NMDA toxicity” value [1] is on record?
Answer: The value was “completely inhibited”.

Question: And the “inhibition of 24S-HC increased NMDA toxicity” value ([1]; listed as MK801)?
Answer: The value was “completely abolishes the toxicity of 24S-HC”.

Question: And the “inhibition of 24S-HC increased OGD toxicity” value [2]?
Answer: The value was “completely inhibited”.

Question: And the “inhibition of 24S-HC increased OGD toxicity” value ([2]; listed as MK801)?
Answer: Its value is “completely abolishes the toxicity of 24S-HC”.

Question: And the “Aβ[1-42]-triggered excitotoxicity via the NMDA receptor” value (NMDA receptor)?
Answer: The value was “can be prevented”.

Question: What about the “cytoplasmic vacuoles in select neurons” value (select neurons) of the same molecule?
Answer: The value was “causes cytoplasmic vacuoles in select neurons”.

Question: For `Clc1ccccc1C(c1ccccc1)(c1ccccc1)n1ccnc1` [clotrimazole], which “affinity for CYP46A” value (CYP46A) is on record?
Answer: Its value is “nanomolar affinity”.

Question: Which “affinity for CYP46A” value (CYP46A) does the source give for `S=C(NC1CCCCC1)N1CCC(c2cnc[nH]2)CC1` [thioperamide] here?
Answer: The value was “nanomolar affinity”.

Question: Which “synthesis of 24S-HC in vitro” value (CYP46A1; at ˜1 M (so in the source)) does the source give for `C[C@@H](c1ncncc1F)[C@](O)(Cn1cncn1)c1ccc(F)cc1F` [voriconazole] here?
Answer: The value was “almost completely inhibit”.

Question: And the “inhibitor of CYP46A1” value (CYP46A1)?
Answer: The value was “potent inhibitor”.

Question: And the “affinity for CYP46A” value (CYP46A)?
Answer: Its value is “nanomolar affinity”.

Question: What about the “ischemic brain injury (infarction, TTC staining)” value [3] of the same molecule?
Answer: Its value is “reduces ischemic brain injury”.

Question: And the “ischemic brain injury (infarction, TTC staining)” value ([3]; listed as Vori)?
Answer: Its value is “dramatically reduced ischemic brain injury; also recorded: protects against 45 min MCAO induced ischemic brain injury”.

Question: And the Aβ deposition (5XFAD mice)?
Answer: The Aβ deposition was “attenuate Aβ deposition”.

Question: What about the cognitive functions (5XFAD mice) of the same molecule?
Answer: The cognitive functions was “improve cognitive functions”.

Question: And the microgliosis (5XFAD mice)?
Answer: The microgliosis was “decrease microgliosis”.

Question: And the neuroinflammation (5XFAD mice)?
Answer: Its neuroinflammation is “reduce neuroinflammation”.

Question: What about the “synapse loss and neuronal loss” value (5XFAD mice) of the same molecule?
Answer: Its value is “reversed”.
